One assay concerns HeLa. Kind of assay: Cytotoxicity against human HeLa cells after 48 hrs by Celltiter-Glo luminescent cell viability assay. In kind it is functional, cell-based.
The next assay concerns A549. Briefly: Cytotoxicity against human A549 cells after 48 hrs by Celltiter-Glo luminescent cell viability assay. Conditions: A549, 48 h. The format is functional, cell-based.
The nature of assay [1]: Cytotoxicity against human SKMES1 cells after 48 hrs by Celltiter-Glo luminescent cell viability assay. The format is functional, cell-based. To be noted: SK-MES-1, 48 h.
The test system of assay [2] is MDA-MB-231. Briefly: Inhibition of microtubule network formation in human MDA-MB-231 cells at 100 nM after 24 hrs by DAPI staining based immunofluorescence microscopic analysis. The format is cell-based.
Assay [3] can be described thus: Cytotoxicity against human THP1 cells after 24 hrs by Celltiter-Glo luminescent cell viability assay. In kind it is functional, cell-based. Conditions: THP-1, 24 h.
The next assay concerns Jurkat. Briefly: Cytotoxicity against human Jurkat cells after 48 hrs by Celltiter-Glo luminescent cell viability assay. In kind it is functional, cell-based.
In assay [4] the test system is MDA-MB-231. Kind of assay: Inhibition of microtubule network formation in human MDA-MB-231 cells assessed as centrosome declustering at 100 nM after 24 hrs by DAPI staining based immunofluorescence microscopic analysis. In kind it is cell-based.
A further assay deals with H1975. Kind of assay: Inhibition of microtubule network formation in human H1975 cells assessed as centrosome declustering at 500 nM after 24 hrs by DAPI staining based immunofluorescence microscopic analysis. In kind it is cell-based.

The source made the active and inactive calls. The calls are words filed in the database; no cut-off is given here.

Consider `CC(=O)O[C@H]1C(=O)[C@@]2(C)[C@H]([C@H](OC(=O)c3ccccc3)[C@]3(O)C[C@H](OC(=O)[C@H](O)[C@@H](NC(=O)c4ccccc4)c4ccccc4)C(C)=C1C3(C)C)[C@]1(OC(C)=O)CO[C@@H]1C[C@@H]2O` [PACLITAXEL], for which the values for the IC50 (in the assay on HeLa; in the assay on A549; in assay [1]) were 18.9 nM, 13.2 nM and 13.5 nM, respectively. Also, the inhibition result with MDA-MB-231 [2] is “inactive”.

Take `COc1cc2c(c(OC)c1OC)-c1ccc(OC)c(=O)cc1[C@@H](n1cc(CCC(=O)OCc3ccccc3)nn1)CC2`: 31 nM corresponded to half-maximal inhibition in assay [3] (IC50).

For the compound `COc1cc2c(c(OC)c1OC)-c1ccc(OC)c(=O)cc1[C@@H](n1cc(COC(=O)[C@H](Cc3ccccc3)NC(C)=O)nn1)CC2`, the half-inhibitory concentration (IC50) in the assay with Jurkat turned out to be 84.2 nM; in assay [3], 25.5 nM.

Take `COc1cc2c(c(OC)c1OC)-c1ccc(OC)c(=O)cc1[C@@H](n1cc(COC(=O)[C@H](Cc3ccccc3)NC(=O)OC(C)(C)C)nn1)CC2`: the IC50 in the assay on Jurkat is 15.3 nM; in assay [3], 4.1 nM; in the assay with HeLa (read-out: IC50), 70.7 nM; in the assay on A549, 73.7 nM; in assay [1], 39.2 nM. In addition, the inhibition entry with MDA-MB-231 [2], in the assay on MDA-MB-231 [4] and in the assay with H1975 was “Active” each time.

On to `COc1cc2c(c(OC)c1OC)-c1ccc(OC)c(=O)cc1[C@@H](n1cc(CCC(=O)OCc3ccc(F)cc3)nn1)CC2`, for which the half-inhibitory concentration (IC50) in the assay on Jurkat was 2.9 nM; in assay [3] it was 5.1 nM; in the assay on HeLa (read-out: IC50) it was 4.9 nM; in the assay with A549, 5.5 nM; in assay [1] it was 3.5 nM. Further, in the assay on MDA-MB-231 [2], the inhibition result was “Active”.

With `COc1cc2c(c(OC)c1OC)-c1ccc(OC)c(=O)cc1[C@@H](n1cc(CCC(=O)OCc3cccc(F)c3)nn1)CC2`, the IC50 in the assay with Jurkat was 4.9 nM; in assay [3] it was 9.3 nM.

In turn, `COc1cc2c(c(OC)c1OC)-c1ccc(OC)c(=O)cc1[C@@H](n1cc(CNC(=O)OC(C)(C)C)nn1)CC2` displayed an IC50 in assay [3] of 23.1 nM.

As to `COc1cc2c(c(OC)c1OC)-c1ccc(OC)c(=O)cc1[C@@H](NC(C)=O)CC2` [COLCHICINE], the IC50 in assay [3] turned out to be 20.4 nM; with HeLa (read-out: IC50), 21.8 nM; with A549 it was 23.9 nM; in assay [1] it was 18.6 nM. Besides, the inhibition result with MDA-MB-231 [2] was “Active”.

Take `COc1cc2c(c(OC)c1OC)-c1ccc(OC)c(=O)cc1[C@@H](n1cc(CCCCC(=O)OCc3ccccc3)nn1)CC2`: the IC50 with Jurkat was 16.7 nM; in assay [3] it was 35.2 nM.

Regarding `CC[C@H](C)[C@H](NC(=O)OC(C)(C)C)C(=O)OCc1cn([C@H]2CCc3cc(OC)c(OC)c(OC)c3-c3ccc(OC)c(=O)cc32)nn1`, in assay [3], the midpoint of inhibition, the IC50, lay at 17.3 nM.

Take `COc1cc2c(c(OC)c1OC)-c1ccc(OC)c(=O)cc1[C@@H](n1cc(COC(=O)[C@H](Cc3ccccc3)NC(=O)OCc3ccccc3)nn1)CC2`: the IC50 with Jurkat worked out at 21.4 nM; in assay [3], 23.3 nM.

Compound `COc1cc2c(c(OC)c1OC)-c1ccc(OC)c(=O)cc1[C@@H](N=[N+]=[N-])CC2` showed an IC50 in assay [3] of 20.9 nM.

`COc1cc2c(c(OC)c1OC)-c1ccc(OC)c(=O)cc1[C@@H](n1cc(C(=O)OCc3ccccc3)nn1)CC2` yielded a 50% inhibitory concentration (IC50) in assay [3] of 140 nM.

Compound `COc1cc2c(c(OC)c1OC)-c1ccc(OC)c(=O)cc1[C@@H](n1cc(COC(=O)[C@H](CCSC)NC(=O)OC(C)(C)C)nn1)CC2` displayed an IC50 in assay [3] of 10.6 nM.

`COc1cc2c(c(OC)c1OC)-c1ccc(OC)c(=O)cc1[C@@H](n1cc(COC(=O)[C@H](Cc3c[nH]c4ccccc34)NC(=O)OC(C)(C)C)nn1)CC2`: half-maximal inhibition in assay [3] (IC50) required 7.3 nM.

`COc1cc2c(c(OC)c1OC)-c1ccc(OC)c(=O)cc1[C@@H](n1cc(COC(=O)[C@@H](NC(=O)OC(C)(C)C)C(C)C)nn1)CC2` yielded an IC50 in assay [3] of 8.1 nM.

For `COc1cc2c(c(OC)c1OC)-c1ccc(OC)c(=O)cc1[C@@H](n1cc(CCC(=O)OCc3ccccc3F)nn1)CC2`, the IC50 with Jurkat is 9.7 nM; in assay [3] it was 12.7 nM.

`COc1cc2c(c(OC)c1OC)-c1ccc(OC)c(=O)cc1[C@@H](n1cc(COC(=O)[C@H](CC(C)C)NC(=O)OC(C)(C)C)nn1)CC2` registered a half-maximal inhibitory concentration (IC50) in assay [3] of 6.6 nM.

As to `COc1cc2c(c(OC)c1OC)-c1ccc(OC)c(=O)cc1[C@@H](n1cc(COC(=O)[C@@H](N)Cc3ccccc3)nn1)CC2`, the IC50 in the assay with Jurkat was determined as 25.1 nM; in assay [3], 24 nM.

Take `COc1cc2c(c(OC)c1OC)-c1ccc(OC)c(=O)cc1[C@@H](n1cc(COC(=O)CCCCCNC(=O)OC(C)(C)C)nn1)CC2`: the IC50 was 9.4 nM with Jurkat and 5.4 nM in assay [3].

Take `COc1cc2c(c(OC)c1OC)-c1ccc(OC)c(=O)cc1[C@@H](n1cc(COC(=O)CCNC(=O)OC(C)(C)C)nn1)CC2`: the IC50 in the assay on Jurkat worked out at 5 nM; in assay [3], 5.7 nM; in the assay with HeLa (read-out: IC50), 20 nM; in the assay on A549, 25.4 nM; in assay [1] it was 9.6 nM. Besides, in the assay with MDA-MB-231 [2], the inhibition result was “Active”.
